# Experimental data published in publication PMC11219744, “Renal excretion of 1,2-dihydroxynaphthalene (DHN) in firefighting instructors after exposure to polycyclic aromatic hydrocarbons (PAHs) during live fire training” (Scientific Reports, 2024).
# “And” between values parts separate entries of the source, which are not always exact repeats. Identical values can stand only once. Like-named read-outs stand apart in the source and are kept apart here.
# Legend:
# [1] = upper margin of internal exposure typically found in smokers; cited from earlier work
# [2] = Human biomonitoring: urinary excretion of PAH metabolites (GC–MS/MS, creatinine-normalised) in firefighting instructors before and after live fire training; settings: for Median increase from baseline (sample 2) to peak excretion: peak: sample 5 for 1-PYR, sample 4 otherwise; for concentration at 6 h: Concentration in urine, sampling 6, corresponding to end of shift
# Method: All study participants (n = 6) were male firefighting instructors from Germany. […] Before the start of the study, all subjects declared that they were non-smokers. Tattoo bearers were excluded before the start of the study as tattoo ink can be a potential source of polycyclic aromatic hydrocarbons. The authors declare that this research was conducted in accordance with the relevant regulations, including the Declaration of Helsinki. All subjects gave written informed consent after being informed about the study by the investigator.
# Exposure to combustion products took place in several training sessions that simulated live fire conditions by burning a defined number of uncoated chipboards in an overseas container. The container was located in a hall with exhaust air purification. […] In addition, all subjects wore long-sleeved undergarments under their turnout gear. Only laundered clothing and cleaned equipment (e.g. helmets, masks) were used. The donning and doffing of clothing and protective equipment took place only in a smoke-free, well-ventilated area. Immediately after taking off the firefighters' gloves after training, the participants put on nitrile gloves for further undressing. After removing the helmet, flash hood and SCBA face shield, the participants put on particle filtering half masks (FFP3) to remove contaminated turnout jackets and trousers. After a break for rehydration and cool down still wearing their undergarments, the participants went to shower. […] The interval between two consecutive training sessions for each subject was at least six days. […] In this way, each subject was biomonitored at each of the five training sessions. All additional (unscheduled) urinations between the predefined times were also collected in separate containers and pooled afterwards with the next scheduled sample. […] A total of 270 samples were to be collected using this procedure for all participants and five training sessions of each individual. Subjects completed a questionnaire for each sampling period to account for possible pre-exposure or concurrent exposure to PAHs from sources other than the fire simulation unit, such as occupational exposure to combustion products, exposure to tobacco smoke (active/passive) and barbecue activities, and consumption of smoked or charbroiled foods.
# In brief, the analytes were extracted by liquid–liquid extraction with n-hexane after enzymatic hydrolysis of the urine samples with ß-glucuronidase/arylsulfatase (isolated from helix pomatia) and derivatised by silylation with N-trimethylsilyl-N-methyl trifluoroacetamide afterwards. […] All standards were obtained from LGC-Standards, Wesel, Germany.
# DHN in urine was determined referring to a method described in detail by Klotz et al.[29]. […] External calibration with internal standardisation by an isotopically labelled analogue of the target compound was done by analysis of pool urine samples spiked with the glucuronides of DHN and D6-1,2-dihydroxynaphthalene (internal standard) before enzymatic hydrolysis. Both standards are not commercially available and were obtained as a gift from the Institute of Occupational, Social and Environmental Medicine at the University of Erlangen-Nuremberg (Germany). A detailed description of the synthesis of the compounds is given by[26]. […] Up to now, there is no external quality assessment scheme available for DHN.
# Urinary creatinine was analysed in the Institute of Clinical Chemistry and Laboratory Medicine of University Medical Centre of the Johannes Gutenberg University Mainz using a photometrical assay based on the method of[30].
# [3] = design: method as in PMID 32464238; settings: by scheduled sampling time; cited from earlier work
# [4] = Time to peak and initial elimination half-life of the urinary biomarkers (first-order model, linear mixed effects); format: in vivo, human; settings: for half-life: male, human, in vivo, initial elimination half-life after peak excretion, urine, read-out: Estimated half-life, mean (converted); for Time to peak, median / Time to peak, range: urinary excretion, time after onset of exposure
# Source text: The initial half-life of each biomarker was estimated using statistical methods described previously[6],[32]. In short, we estimated the first-order elimination rate constant λ based on the model in Eq. (1):1 C=C0+B·e^λ·t+∈
# Here, C is the creatinine-adjusted concentration in urine after the uptake phase, C0 is the baseline concentration before training, B is the difference from peak to baseline concentration, t is the time since peak concentration, and ϵ is the error term. […] Using package nlme[33] for the statistical environment R[34],[35], the model was fitted as a linear mixed effects model for the log concentration difference to baseline ln(C–C0) as the outcome. The model was fitted simultaneously for all data and included fixed effects for biomarker, time since peak, and their interaction term. It used random slopes for time since peak and random intercepts for […]. Errors were assumed to be autocorrelated according to an AR(1) process.
# [5] = cited from earlier work
# [6] = sampling 1, morning urine on training day before exposure (mean −4.2 h from start of exposure), n = 30
# [7] = sampling 1, morning urine on training day before exposure, n = 30
# [8] = sampling 2, before training (mean −0.4 h), n = 28
# [9] = sampling 2, before training, n = 28
# [10] = sampling 3, at the end of the training session (mean 2.0 h after start of exposure), n = 26
# [11] = sampling 3, at the end of the training session, n = 26
# [12] = sampling 4, 1 h after the end of training (mean 3.0 h after start of exposure), n = 25
# [13] = sampling 4, 1 h after the end of training, n = 25
# [14] = sampling 5, 3 h after the end of training (mean 5.2 h after start of exposure), n = 22
# [15] = sampling 5, 3 h after the end of training, n = 22
# [16] = sampling 6, 6 h after the end of training (mean 8.1 h after start of exposure), n = 23
# [17] = sampling 6, 6 h after the end of training, n = 23
# [18] = sampling 7, 9 h after the end of training (mean […] after start of exposure), n = 27
# [19] = sampling 7, 9 h after the end of training, n = 27
# [20] = sampling 8, right before bedtime (mean 12.7 h after start of exposure), n = 27
# [21] = sampling 8, right before bedtime, n = 27
# [22] = sampling 9, morning urine the next day, 18 h after training (mean 20.1 h after start of exposure), n = 29
# [23] = sampling 9, morning urine the next day, n = 29
# [24] = 58 urine samples before onset of exposure, not creatinine-normalised
smiles,measurement,setting,value
"Oc1cccc2ccccc12 [1-NAP, 1-hydroxynaphthalene]",95th percentile of urinary concentration in smokers,[1],32.8 µg/g crea.
same,"Increase in concentration from before exposure up to the maximum of excretion, factor",[2]; in vivo,40
same,Median increase in morning urine after exposure (sampling 9) vs. before (sampling 1),[2]; in vivo,3.9 fold
same,Median increase from baseline (sample 2) to peak excretion,[2],36 fold
same,Time of peak excretion after the end of the training session,[3],1 h
"Oc1ccc2ccc3cccc4ccc1c2c34 [1-PYR, 1-hydroxypyrene]",half-life,[4],7.7 h
same,"Time to peak, median",[4],5.3 h
same,"Time to peak, range",[4],2.5 to 13.9 h
same,Median increase in morning urine after exposure (sampling 9) vs. before (sampling 1),"[2]; male, human, in vivo, 18 h",2.8 fold
same,Median increase from baseline (sample 2) to peak excretion,[2],7.9 fold
same,Maximum excretion pre exposure,[2]; pre exposure samplings,0.22 µg/g creatinine
same,"Concentration in urine, median",[2]; [6],0.06 µg/g creatinine
same,"Concentration in urine, IQR",[2]; [7],0.04–0.08 µg/g creatinine
same,"Concentration in urine, range",[2]; [7],0.03–0.15 µg/g creatinine
same,"Concentration in urine, median",[2]; [8],0.05 µg/g creatinine
same,"Concentration in urine, IQR",[2]; [9],0.03–0.06 µg/g creatinine
same,"Concentration in urine, median",[2]; [10],0.06 µg/g creatinine
same,"Concentration in urine, IQR",[2]; [11],0.04–0.08 µg/g creatinine
same,"Concentration in urine, median",[2]; [12],0.20 µg/g creatinine
same,"Concentration in urine, IQR",[2]; [13],0.14–0.31 µg/g creatinine
same,"Concentration in urine, range",[2]; [13],0.06–1.61 µg/g creatinine
same,"Concentration in urine, median",[2]; [14],0.40 µg/g creatinine
same,"Concentration in urine, IQR",[2]; [15],0.21–0.59 µg/g creatinine
same,"Concentration in urine, range",[2]; [15],0.16–1.88 µg/g creatinine
same,"Concentration in urine, median",[2]; [16],0.29 µg/g creatinine
same,"Concentration in urine, IQR",[2]; [17],0.19–0.42 µg/g creatinine
same,"Concentration in urine, range",[2]; [17],0.10–1.93 µg/g creatinine
same,"Concentration in urine, median",[2]; [18],0.25 µg/g creatinine
same,"Concentration in urine, IQR",[2]; [19],0.16–0.30 µg/g creatinine
same,"Concentration in urine, range",[2]; [19],0.08–1.56 µg/g creatinine
same,"Concentration in urine, median",[2]; [20],0.21 µg/g creatinine
same,"Concentration in urine, IQR",[2]; [21],0.12–0.33 µg/g creatinine
same,"Concentration in urine, range",[2]; [21],0.06–1.06 µg/g creatinine
same,"Concentration in urine, median",[2]; [22],0.17 µg/g creatinine
same,"Concentration in urine, IQR",[2]; [23],0.10–0.25 µg/g creatinine
same,"Concentration in urine, range",[2]; [23],0.05–0.63 µg/g creatinine
"Oc1ccc2ccccc2c1O [DHN, 1,2-dihydroxynaphthalene]",Time of peak excretion after the end of the training session,[4]; by scheduled sampling time,1 h
same,Time required to reach pre exposure levels again,"[4]; from median maximum 134.15 µg/g crea., about 5 half-lives, monophasic elimination assumed",approximately 33 h
same,half-life,[4],6.6 h
same,"Time to peak, median",[4],3.3 h
same,"Time to peak, range",[4],2.5 to 19.0 h
same,"Urinary level, median",[5]; 20 non-smoking subjects,4.6 µg/L
same,"Urinary concentration, GM (GSD)","[5]; coke oven workers, n = 28, China",452 (2.28) µg/l
same,"Urinary concentration, geometric mean","[5]; control group, n = 22 office and hospital workers including three smokers, China",38.8 µg/L
same,"Urinary concentration, median",[5]; n = 9 smokers,17.1 µg/L
same,"Urinary concentration, range",[5]; n = 9 smokers,1.9 to 62 µg/L
same,"Urinary concentration, median (range)","[5]; wood impregnation workers, n = 9, Germany",88.3 (10.8–1497) µg/l
same,"Urinary concentration, median (range)","[5]; workers at converter infeed, n = 26, Germany",945.4 (22.0–1902.6) µg/l
same,"Urinary concentration, median (range)","[5]; workers in the abrasive industry, post-shift Monday, n = 10, Germany","3944 (114–42,066) µg/l"
same,"Urinary concentration, median (range)","[5]; workers in the abrasive industry, post-shift Thursday, n = 10, Germany","11,162 (337–51,809) µg/l"
same,"Concentration in urine, median",[2]; [24],2.89 µg/L
same,"Concentration in urine, range",[2]; [24],0.6 to 19.4 µg/L
same,"Baseline concentration in urine, total range","[2]; before training, samplings 1 and 2 together",0.9–10.2 µg/g crea. and 0.87–10.19 µg/g crea.
same,"Urinary peak concentration, median (range)","[2]; firefighters after live fire training, sampling 4, n = 6, Germany",246.7 (18.2–1084.2) µg/l
same,Median increase in morning urine after exposure (sampling 9) vs. before (sampling 1),"[2]; male, human, in vivo, 18 h",12.9 fold
same,concentration at 6 h,"[2]; male, human, in vivo, median",71.3 ng/mL
same,concentration at 6 h,"[2]; male, human, in vivo, range",16.6 to 674 ng/mL
same,Median increase from baseline (sample 2) to peak excretion,[2],41 fold
same,Individual maximum concentration in urine,"[2]; post exposure, sampling 4",380.4 µg/g crea.
same,"Concentration in urine, median",[2]; [6],2.23 µg/g creatinine
same,"Concentration in urine, IQR",[2]; [7],1.43–4.18 µg/g creatinine
same,"Concentration in urine, range",[2]; [7],0.87–10.19 µg/g creatinine
same,"Concentration in urine, median",[2]; [8],3.3 µg/g creatinine and 3.32 µg/g creatinine
same,"Concentration in urine, IQR",[2]; [9],2.03–4.80 µg/g creatinine
same,"Concentration in urine, range",[2]; [9],1.41–9.04 µg/g creatinine
same,"Concentration in urine, median",[2]; [10],31.60 µg/g creatinine
same,"Concentration in urine, IQR",[2]; [11],25.79–52.81 µg/g creatinine
same,"Concentration in urine, range",[2]; [11],10.68–166.80 µg/g creatinine
same,"Concentration in urine, median",[2]; [12],134.2 µg/g creatinine and 134.15 µg/g creatinine
same,"Concentration in urine, IQR",[2]; [13],92.94–164.89 µg/g creatinine
same,"Concentration in urine, range",[2]; [13],43.38–380.43 µg/g creatinine
same,"Concentration in urine, median",[2]; [14],131.46 µg/g creatinine
same,"Concentration in urine, IQR",[2]; [15],104.83–207.75 µg/g creatinine
same,"Concentration in urine, range",[2]; [15],78.66–375.77 µg/g creatinine
same,"Concentration in urine, median",[2]; [16],86.01 µg/g creatinine
same,"Concentration in urine, IQR",[2]; [17],67.60–137.94 µg/g creatinine
same,"Concentration in urine, range",[2]; [17],46.21–284.21 µg/g creatinine
same,"Concentration in urine, median",[2]; [18],51.58 µg/g creatinine
same,"Concentration in urine, IQR",[2]; [19],40.81–76.67 µg/g creatinine
same,"Concentration in urine, range",[2]; [19],21.95–159.57 µg/g creatinine
same,"Concentration in urine, median",[2]; [20],46.02 µg/g creatinine
same,"Concentration in urine, IQR",[2]; [21],30.70–63.89 µg/g creatinine
same,"Concentration in urine, range",[2]; [21],19.82–154.82 µg/g creatinine
same,"Concentration in urine, median",[2]; [22],27.1 µg/g creatinine and 27.08 µg/g creatinine
same,"Concentration in urine, IQR",[2]; [23],20.03–40.28 µg/g creatinine
same,"Concentration in urine, range",[2]; [23],15.69–139.47 µg/g creatinine
